Assay results taken from patent US5723462A, “Certain fused pyrrolecarboxamides a new class of GABA brain receptor ligands” (Neurogen Corporation, priority 1996, dated 1998).

Key:
GABA receptor = settings: Tallman et al., 1978; cited from earlier work
GABAa receptor = GABAa receptor binding assay ([3H]-Flumazenil, RO15-1788 displacement, rat cortical tissue); settings: 0.5 nM 3H-RO15-1788, 30 min at 4° C.
Method: The pharmaceutical utility of compounds of this invention are indicated by the following assay for GABAa receptor binding activity.
Assays are carried out as described in Thomas and Tallman (J. Bio. Chem. 156: 9838-9842, J. Neurosci. 3: 433-440, 1983). Rat cortical tissue is dissected and homogenized in 25 volumes (w/v) of 0.05M Tris HCl buffer (pH 7.4 at 4° C.). The tissue homogenate is centrifuged in the cold (4° ) at 20,000×g for 20'. The supernatant is decanted and the pellet is rehomogenized in the same volume of buffer and again centrifuged at 20,000×g. The supernatant is decanted and the pellet is frozen at -20° C. overnight. The pellet is then thawed and rehomogenized in 25 volume (original wt/vol) of buffer and the procedure is carried out twice. The pellet is finally resuspended in 50 volumes (w/vol of 0.05M Tris HCl buffer (pH 7.4 at […]).
Incubations contain […] of tissue homogenate, […] of radioligand 0.5 nM (^3 H-RO15-1788 [^3 H-Flumazenil] specific activity 80 Ci/mmol), drug or blocker and buffer to a total volume of […]. Incubations are carried for 30 min at 4° C. then are rapidly filtered through GFB filters to separate free and bound ligand. Filters are washed twice with fresh 0.05M Tris HCl buffer (pH 7.4 at 4° C.) and counted in a liquid scintillation counter. 1.0 mM diazepam is added to some tubes to determine nonspecific binding. Data are collected in triplicate determinations, averaged and % inhibition of total specific binding is calculated. Total Specific Binding=Total-Nonspecific. In some cases, the amounts of unlabeled drugs is varied and total displacement curves of binding are carried out. Data are converted to IC50 or Ki.

| Ki (GABAa receptor) [nM] | SMILES | blockade of the enhancement of benzodiazepine binding by GABA agonists (GABA receptor) |
| --- | --- | --- |
|  | CN1CCc2cc3c(cc2C1C1OC(=O)c2c1ccc1c2OCO1)OCO3 (single isomer, unassigned; (+)) [(+) bicuculline] | blocked |
|  | CN1CCc2cc3c(cc2C1C1OC(=O)c2c1ccc1c2OCO1)OCO3 (single isomer, unassigned; (-)) [(-) bicuculline] | much less active |
| 11 | COc1ccc(NC(=O)c2c[nH]c3c2C(=O)CCC3)cn1 [Compound 1] |  |
| 66 | COc1ccc2ccc(NC(=O)c3c[nH]c4c3C(=O)CCC4)nc2n1 [Compound 3, N-(2-methoxy-1,8-napthyridin-7-yl)-4-oxo-4,5,6,7-tetrahydro-1H-indole-3-carboxamide] |  |
| 3 | O=C(Nc1ccccn1)c1c[nH]c2c1C(=O)CCC2 [Compound 4, N-(2-Pyridyl)-4-oxo-4,5,6,7-tetrahydro-1H-indole-3-carboxamide] |  |
| 15 | CC1(C)CCc2[nH]cc(C(=O)Nc3ccsc3)c2C1=O [Compound 7, N-(3-Thienyl)-4-oxo-5,5-dimethyl-4,5,6,7-tetrahydro-1H-indole-3-carboxamide] |  |
| 2 | CC1(C)CCc2[nH]cc(C(=O)Nc3nccs3)c2C1=O [Compound 8, N-(2-Thiazolyl)-4-oxo-5,5-dimethyl-4,5,6,7-tetrahydro-1H-indole-3-carboxamide] |  |
| 9 | Cc1cnc(NC(=O)c2c[nH]c3c2C(=O)CCC3)s1 [Compound 9, N-(5-Methyl-2-thiazolyl)-4-oxo-4,5,6,7-tetrahydro-1H-indole-3-carboxamide] |  |
| 83 | O=C(Nc1ccc2ccc(Cl)nc2n1)c1c[nH]c2c1C(=O)CCC2 [Compound 10, N-(2-Chloro-1,8-napthyridin-7-yl)-4-oxo-4,5,6,7-tetrahydro-1H-indole-3-carboxamide] |  |
| 3 | Cc1cnc2nc(NC(=O)c3c[nH]c4c3C(=O)CCC4)ccc2c1 [Compound 11] |  |
| 50 | O=C(Nc1ccc2ccccc2n1)c1c[nH]c2c1C(=O)CCC2 [Compound 12, N-(2-Quinolinyl)-4-oxo-4,5,6,7-tetrahydro-1H-indole-3-carboxamide] |  |
| 64 | O=C(Nc1ccc2nccnc2c1)c1c[nH]c2c1C(=O)CCC2 [Compound 13, N-(6-Quinoxalinyl)-4-oxo-4,5,6,7-tetrahydro-1H-indole-3-carboxamide] |  |

| SMILES | Ki (GABAa receptor) [nM] | blockade of the enhancement of benzodiazepine binding by GABA agonists (GABA receptor) |
| --- | --- | --- |
| O=C(Nc1ccsc1)c1c[nH]c2c1C(=O)CCC2 [Compound 2, N-(3-thienyl)-4-oxo-4,5,6,7-tetrahydro-1H-indole-3-carboxamide] | 3 |  |
| O=C(Nc1nccs1)c1c[nH]c2c1C(=O)CCCC2 [Compound 5, N-(2-Thiazolyl)-4-oxo-1,4,5,6,7,8-hexahydro-cyclohepta[b]pyrrole-3-carboxamide] | 2 |  |
| O=C(Nc1cccnc1)c1c[nH]c2c1C(=O)CCCC2 [Compound 6, N-(3-Pyridyl)-4-oxo-1,4,5,6,7,8-hexahydro-cyclohepta[b]pyrrole-3-carboxamide] | 25 |  |
